The values below come from patent US20110152267A1, “Compositions and Methods for Treating Hyperproliferative Disorders” (Texas Tech University System, priority 2009, published 2011).

Holding throughout (format): cell-based, human
Experiment [1] has as its system HT-29 colon cancer cell line. The experiment is described as follows: DIMSCAN cytotoxicity dose-response with fenretinide, with or without D-threo-PPMP (Examples A, FIGS. 4, 10, 15, 21-23). The conditions noted are these: +96 hrs. Here is the method:
Cytotoxicity Assay: Cytotoxicity in cell lines was determined using a fluorescence-based assay employing digital imaging microscopy (DIMSCAN)(after Fragala, et al, Mol Cancer Ther, 6:886-897, 2007). DIMSCAN quantitates viable cells which selectively accumulate fluorescein diacetate and is capable of measuring cytotoxicity over a 4-5 log dynamic range by quantifying total fluorescence per well (which is proportional to viable, clonogenic cells) after eliminating background fluorescence using digital thresholding and eosin Y quenching. Briefly, cell lines were seeded into 96-well plates in 100 µL of complete culture medium (10-20% serum) per well. Cells were incubated overnight in 2%, 5% or 20% oxygen (room air) prior to addition of drugs in […] volumes of complete medium to various final drug concentrations in replicates of 12 wells per concentration. In assays employing D-threo-PPMP, PPMP was employed at a fixed, minimally-toxic, final concentration of 10 μM in each well. Control wells received ethanol (final concentration=0.12%-0.20%) in complete medium equivalent to the maximum final ethanol concentration of drug-treated wells. Plates were incubated at various oxygen concentrations to simulate physiological hypoxia (i.e., 2% oxygen=typical solid tumor oxygen levels; 5%=bone marrow oxygen levels for leukemias; 20% room air=supraphysiological oxygen for comparison with typical laboratory culture conditions). Plates were assayed at 3-4 days after initiating drug exposure depending on the growth properties of each cell line, to allow for maximum cell death and outgrowth of surviving cells. To measure cytotoxicity, FDA (stock solution of 1 mg/ml in DMSO) was added, in 50 µL of complete medium per well, to a final concentration of 10 µg/ml. The plates were incubated for an additional 15-30 minutes at 37 C and then 30 µL of eosin Y (0.5% in normal saline) was added per well. Total fluorescence of each well was then measured using digital imaging microscopy.
FIGS. 1 to 26 illustrate the effect (Examples A1 through A26) of the claimed invention and were carried out using the procedures disclosed herein.

In experiment [2] the test system is COG-LL-317 acute lymphoblastic leukemia cell line. As to the kind of experiment: DIMSCAN cytotoxicity, fenretinide + L-threo-sphinganines 3:1 (Example B20). The procedure: (§1) Cytotoxicity Assay—Once again, cytotoxicity is determined using the DIMSCAN assay system (R. Proffitt et al., Cytometry 24, 204-213 (1996); T. Frgala et al., Mol Cancer Ther. 6:886-97, 2007). The system employs digital imaging microscopy to quantify viable cells, which selectively accumulate fluorescein diacetate to become brightly fluorescent. The system is capable of measuring cytotoxicity over a 4-5 log dynamic range by quenching the residual fluorescence of dead and dying cells with eosin Y and quantifying the total fluorescence of viable cells using digital thresholding. Measured fluorescence is directly proportionate to the number of viable cells. A comparison of the total fluorescence of a drug-treated cell population to the fluorescence of a similar number of untreated cells yields a survival fraction. In brief, 2000 to 10,000 cells/well (depending on size and growth rates) are replicate plated into 60 wells of a 96-well tissue culture plate in 0.1 mL of whole medium and allowed to attach overnight. Drug(s) are then added in 0.05 mL of whole medium to the final concentrations indicated. Drugs (fenretinide, and various chain length L-threo-sphinganines) were tested both as single agents and in a 3:1 ratio of fenretinide:sphinganine. C18-L-threo-sphinganine, or “safingol,” was also tested and results shown for reference. There are 12 wells treated per drug concentration. Twelve wells receive drug vehicle-only to the appropriate final concentration and serve as controls for the plate. Cells are incubated for 96 hours at 37° C. in ambient air with 5% CO2. Fluorescein diacetate is then added to each well in 0.05 mL media to a final concentration of 8 microgram/mL. Cells are incubated for a further 15 minutes at 37° C. and 0.03 mL of 0.5% eosin Y is added to each well. Total fluorescence of viable cells is then measured by digital imaging microscopy. Results were graphed as the ratio of the fluoresecence of drug-treated wells to non-drug treated control wells (i.e., Survival Fraction). All tests were performed at least twice. Representative results are shown.
(§2) The Combination Index (CI) is a term to describe mathematical modeling of the pharmacologic effects on cytotoxicity (cell death) of two drugs in combination based. Cytotoxic “synergy” is defined as a cell death affect which is greater than would be expected from a simple product of the single agent cytotoxicities alone (i.e. an “additive” effect). By Chou-Talalay analysis, a CI<0.9 on a Fraction Affected (“Fa”, i.e. fraction of cells killed) indicates synergy, with smaller numbers indicating greater synergy; a CI of 0.9-1.1 signifies an additive or near-additive effect; and a CI>1.1 means the drug combination is antagonistic.
(§3) Fenretinide and L-threo-sphinganines tested in human acute lymphoblastic leukemia (pediatric ALL, a blood cancer) cell lines, COG-LL-317 and MOLT-4.

In experiment [3] the test system is MOLT-4 acute lymphoblastic leukemia cell line. Described as above. Here is the method: as §1, §2, §3
Experiment [4] has as its system OE-19 esophageal adenocarcinoma cell line. As to the kind of experiment: DIMSCAN cytotoxicity, fenretinide + L-threo-sphinganines 3:1 (Example B19). The procedure:
as §1, §2
(§4) Fenretinide and L-threo-sphinganines tested in human esophageal adenocarcinoma (esophagus cancer) cell lines, OE-19 and OE-33.

For experiment [5], the system named is OE-33 esophageal adenocarcinoma cell line. The experiment is described as above. The procedure: as §1, §2, §4
In experiment [6] the test system is CHLA-266 primitive neuroectodermal tumor (PNET) cell line. The experiment is described as follows: DIMSCAN cytotoxicity, fenretinide + L-threo-sphinganines 3:1 (Example B9). The conditions noted are these: 96 h. Here is the method:
as §1, §2
Fenretinide and L-threo-sphinganines tested in human primitive neuroectodermal tumor (PNET) (brain cancer) cell line, CHLA-266.

Setting [7] is: 4-HPR 3 μM + L-threo-sphinganine 1 μM.
Setting [8] is: 4-HPR 6 μM + L-threo-sphinganine 2 μM.
[9] abbreviates: 4-HPR 9 μM + L-threo-sphinganine 3 μM.
[10] abbreviates: 4-HPR 12 μM + L-threo-sphinganine 4 μM.
[11] abbreviates: 4-HPR 1.5 μM + L-threo-sphinganine 0.5 μM.

Bounds are passed on as bounds.

For the compound `CCCCCCCCCCCCCCCC[C@H](O)[C@@H](N)CO` [C19, (2S,3S)-2-amino-1,3-nonadecanediol], the “C.I. of D-threo-PPMP with fenretinide+L-threo-sphinganine (three drug combination)” value in experiment [1] (20% oxygen, D-threo-PPMP fixed 10 uM, at most doses) is on record as under 1. Further, the “C.I. (Combination Index) with fenretinide” value in experiment [1] (oxygen not stated, at one or more doses) is listed as under 1. Further, the CI is 0.8 in experiment [2] (setting [7]); 0.4 in experiment [2] (setting [8]); 1.0 in experiment [3] (setting [7]); 0.8 in experiment [3] (setting [8]); 0.8 in experiment [3] (setting [9]); 1.0 in experiment [4] (setting [11]). Besides, the CI in experiment [4] (setting [7]) came out at 1.6; in experiment [4] (setting [8]), 1.6; in experiment [4] (setting [9]) it was 1.1; in experiment [5] (setting [11]), 1.9; in experiment [5] (setting [7]), 1.6; in experiment [5] (setting [8]) it was 0.6. Also, the CI in experiment [5] (setting [9]) is on record as 0.3. Moreover, the Fa in experiment [2] (setting [7]) is 0.9980; in experiment [2] (setting [8]), 0.9999; in experiment [2] (setting [9]), 1.0000; in experiment [2] (setting [10]), 1.0000; in experiment [3] (setting [7]), 0.797; in experiment [3] (setting [8]) it was 0.996. In addition, the Fa was found to be 0.999 in experiment [3] (setting [9]); 1 in experiment [3] (setting [10]); 0.094 in experiment [4] (setting [11]); 0.109 in experiment [4] (setting [7]); 0.173 in experiment [4] (setting [8]); 0.272 in experiment [4] (setting [9]). Moreover, the Fa in experiment [5] (setting [11]) is 0.299; in experiment [5] (setting [7]) it was 0.582; in experiment [5] (setting [8]), 0.951; in experiment [5] (setting [9]), 0.989.

Turning to `CCCCCCCCCCCC[C@H](O)[C@@H](N)CO` [C15], the “CI (Combination Index)” value is 0.5 in experiment [6] (setting [11]), 1.0 in experiment [6] (setting [7]), 1.2 in experiment [6] (setting [8]) and 0.4 in experiment [6] (setting [9]). Besides, the “Fa (fraction affected)” value in experiment [6] (setting [11]) is 0.657; in experiment [6] (setting [7]), 0.701; in experiment [6] (setting [8]), 0.906; in experiment [6] (setting [9]), 0.999.

Consider `CCCCCCCCCCC[C@H](O)[C@@H](N)CO` [C14], for which the “CI (Combination Index)” value in experiment [6] (setting [11]) was determined as 0.6; in experiment [6] (setting [7]), 0.9; in experiment [6] (setting [8]), 1.1; in experiment [6] (setting [9]) it was 1.6. Moreover, the “Fa (fraction affected)” value in experiment [6] (setting [11]) stood at 0.342; in experiment [6] (setting [7]), 0.739; in experiment [6] (setting [8]), 0.968; in experiment [6] (setting [9]) it was 0.974.

As for `CCCCCCCCC[C@H](O)[C@@H](N)CO` [C12], the “CI (Combination Index)” value in experiment [6] (setting [11]) was 0.6; in experiment [6] (setting [7]) it was 0.6; in experiment [6] (setting [8]), 0.7; in experiment [6] (setting [9]), 1.0. For the same compound, the “Fa (fraction affected)” value is listed as 0.464 in experiment [6] (setting [11]), 0.788 in experiment [6] (setting [7]), 0.951 in experiment [6] (setting [8]) and 0.965 in experiment [6] (setting [9]). The CI in experiment [4] (setting [11]) is listed as 1.4; in experiment [4] (setting [7]), 2.9; in experiment [4] (setting [8]), 5.5; in experiment [4] (setting [9]), >>1; in experiment [5] (setting [11]), 1.0; in experiment [5] (setting [7]), 1.0. In addition, the CI in experiment [5] (setting [8]) stood at 1.3; in experiment [5] (setting [9]) it was 1.1. Besides, the Fa in experiment [4] (setting [11]) is reported as 0.345; in experiment [4] (setting [7]) it was 0.325; in experiment [4] (setting [8]), 0.506; in experiment [4] (setting [9]) it was 0.632; in experiment [5] (setting [11]) it was 0.376; in experiment [5] (setting [7]) it was 0.618. Moreover, the Fa in experiment [5] (setting [8]) is 0.758; in experiment [5] (setting [9]), 0.925.

For `CCCCCCCCCCCCCCC[C@H](O)[C@@H](N)CO` [C18, (2S,3S)-2-amino-1,3-octadecanediol, reference compound], the CI amounted to 0.8 in experiment [2] (setting [7]); 0.6 in experiment [2] (setting [8]); 0.8 in experiment [2] (setting [9]); 0.9 in experiment [3] (setting [7]); 0.7 in experiment [3] (setting [8]); 0.8 in experiment [3] (setting [9]). Further, the CI in experiment [4] (setting [11]) came to 0.7; in experiment [4] (setting [7]), 0.4; in experiment [4] (setting [8]) it was 0.2; in experiment [4] (setting [9]) it was 0.2. In addition, the Fa in experiment [2] (setting [7]) turned out to be 0.998; in experiment [2] (setting [8]), 0.9994; in experiment [2] (setting [9]), 0.9996; in experiment [2] (setting [10]), 1; in experiment [3] (setting [7]), 0.829; in experiment [3] (setting [8]) it was 0.998. For the same compound, the Fa was determined as 0.999 in experiment [3] (setting [9]); 1 in experiment [3] (setting [10]); 0.281 in experiment [4] (setting [11]); 0.464 in experiment [4] (setting [7]); 0.709 in experiment [4] (setting [8]); 0.799 in experiment [4] (setting [9]). Besides, the “CI (Combination Index)” value in experiment [6] (setting [11]) stood at 0.5; in experiment [6] (setting [7]), 0.8; in experiment [6] (setting [8]), 1.1; in experiment [6] (setting [9]), 1.5. In addition, the “Fa (fraction affected)” value in experiment [6] (setting [11]) is 0.604; in experiment [6] (setting [7]) it was 0.880; in experiment [6] (setting [8]), 0.984; in experiment [6] (setting [9]), 0.989.
